In patent publication US20160296529A1, “AMINOTRIAZOLOPYRIDINE FOR USE IN THE TREATMENT OF INFLAMMATION, AND PHARMACEUTICAL COMPOSITIONS THEREOF” (priority 2012, published 2016) one finds IC50 data, which are given here for one compound.

A word on the IC50: it is the concentration that gives 50% inhibition.

The target of test [1] is T1, Recombinant human JAK1 catalytic domain (Homo sapiens, UniProt P23458).
T1 construct: amino acids 866-1154; catalog number PV4774; purchased Invitrogen PV4774
In words: JAK1 assay polyGT substrate. The class given is biochemical. The procedure: Recombinant human JAK1 catalytic domain (amino acids 866-1154; catalog number PV4774) was purchased from Invitrogen. 25 ng of JAK1 was incubated with 6.25 μg polyGT substrate (Sigma catalog number P0275) in kinase reaction buffer (15 mM Hepes pH7.5, 0.01% Tween20, 10 mM MgCl2, 2 μM non-radioactive ATP, 0.25 μCi ^33P-gamma-ATP (Perkin Elmer, catalog number NEG602K001MC) final concentrations) with or without 5 μL containing test compound or vehicle (DMSO, 1% final concentration), in a total volume of 25 μL, in a polypropylene 96-well plate (Greiner, V-bottom). After 75 min at 30° C., reactions were stopped by adding 25 μL/well of 150 mM phosphoric acid. […] 40 μL/well of Microscint-20 was added, the top of the plates was sealed and readout was performed using the Topcount (Perkin Elmer). Kinase activity was calculated by subtracting counts per min (cpm) obtained in the presence of a positive control inhibitor (10 μM staurosporine) from cpm obtained in the presence of vehicle. The ability of a test compound to inhibit this activity was determined as:
Percentage inhibition−((cpm determined for sample with test compound present−cpm determined for sample with positive control inhibitor) divided by (cpm determined in the presence of vehicle−cpm determined for sample with positive control inhibitor))*100. […]

The target of test [2] is T1, Recombinant human JAK1 catalytic domain. Description: JAK1 Ulight-JAK1 peptide assay. In kind it is biochemical. The procedure: Recombinant human JAK1 (catalytic domain, amino acids 866-1154; catalog number PV4774) was purchased from Invitrogen. 1 ng of JAK1 was incubated with 20 nM Ulight-JAK1(tyr1023) peptide (Perkin Elmer catalog number TRF0121) in kinase reaction buffer (15 mM MOPS pH6.8, 0.01% Brij-35, 5 mM MgCl2, 2 mM DTT, 7 μM ATP) with or without 4 μL containing test compound or vehicle (DMSO, 1% final concentration), in a total volume of 20 μL, in a white 384 Opti plate (Perkin Elmer, catalog number 6007290). […] Readout was performed using the Envision with excitation at 320 nm and measuring emission at 615 nm (Perkin Elmer). Kinase activity was calculated by subtracting relative fluorescence units (RFU) obtained in the presence of a positive control inhibitor (10 μM staurosporine) from RFU obtained in the presence of vehicle. The ability of a test compound to inhibit this activity was determined as:
Percentage inhibition=((RFU determined for sample with test compound present−RFU determined for sample with positive control inhibitor) divided by (RFU determined in the presence of vehicle−RFU determined for sample with positive control inhibitor))*100.
A dose dilution series was prepared for the compound enabling the testing of dose-response effects in the JAK1 assay and the calculation of the IC50 for the compound. […] The data were expressed as the average IC50 from the assays±standard error of the mean.

For the next test, the system named is JAK-STAT. Description: JAK-STAT signalling assay (OSM-triggered pSTAT1(2)-luciferase reporter in HeLa cells). In kind it is cell-based, human. How it is done: HeLa cells were maintained in Dulbecco's Modified Eagle's Medium (DMEM) containing 10% heat inactivated fetal calf serum, 100 U/mL penicillin and 100 μg/mL streptomycin. HeLa cells were used at 70% confluence for transfection. 20,000 cells in 87 μL cell culture medium were transiently transfected with 40 ng pSTAT1(2)-luciferase reporter (Panomics), 8 ng of LacZ reporter as internal control reporter and 52 ng of pBSK using 0.32 μL Jet-PEI (Polyplus) as transfection reagent per well in 96-well plate format. After overnight incubation at 37° C., 5% CO2, transfection medium was removed. 81 μL of DMEM+1.5% heat inactivated fetal calf serum was added. 9 μL compound at 10× concentration was added for 60 min and then 10 μL of human OSM (Peprotech) at 33 ng/mL final concentration.
The compound was tested in duplicate starting from 20 μM followed by a 1/3 serial dilution, 8 doses in total (20 μM-6.6 μM-2.2 μM-740 nM-250 nM-82 nM-27 nM-9 nM) in a final concentration of 0.2% DMSO.
After overnight incubation at 37° C., 5% CO2 cells were lysed by adding 100 μL lysis buffer/well (PBS, 0.9 mM CaCl2, 0.5 mM MgCl2, 10% Trehalose, 0.05% Tergitol NP9, 0.3% BSA).
40 μL of cell lysate was used to read β-galactosidase activity by adding 180 μL 11-Gal solution (30 μL ONPG 4 mg/mL+150 μL β-Galactosidase buffer (0.06 M Na2HPO4, 0.04 M NaH2PO4, 1 mM MgCl2)) for 20 min. The reaction was stopped by addition of 50 μL Na2CO3 1 M. Absorbance was read at 405 nm.
Luciferase activity was measured using 40 μL cell lysate plus 40 μL of Steadylite® as described by the manufacturer (Perkin Elmer), on the Envision (Perkin Elmer).
Omitting OSM was used as a positive control (100% inhibition). As negative control […] (0% inhibition) was used. The positive and negative controls were used to calculate z′ and ‘percent inhibition’ (PIN) values.
Percentage inhibition=((fluorescence determined in the presence of vehicle−fluorescence determined for sample with test compound present) divided by (fluorescence determined in the presence of vehicle−fluorescence determined for sample without trigger))*100.
PIN values were plotted for compounds tested in dose-response and EC50 values were derived.
(In general: Reporter assays use an easily measured gene product as a stand-in for the process of interest.)

Where [3] appears, read: average, read-out: IC50 (average).
The mark [4] stands for this setting: individual determinations, read-out: IC50.

Where “and” joins values, the source holds several entries; their conditions need not be identical. Identical values can stand only once. Like-named read-outs stand apart in the source and are kept apart here.

T1 sequence (P23458 866-1154): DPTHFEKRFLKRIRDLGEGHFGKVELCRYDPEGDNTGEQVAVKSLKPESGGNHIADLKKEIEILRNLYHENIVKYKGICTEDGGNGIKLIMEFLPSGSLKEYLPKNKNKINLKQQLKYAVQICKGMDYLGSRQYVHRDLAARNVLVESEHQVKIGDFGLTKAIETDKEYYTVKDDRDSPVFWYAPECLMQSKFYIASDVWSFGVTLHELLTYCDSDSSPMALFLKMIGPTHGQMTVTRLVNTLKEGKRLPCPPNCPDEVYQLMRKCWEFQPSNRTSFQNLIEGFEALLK

On to `Nc1nc2cccc(-c3ccc(CN4CCS(=O)(=O)CC4)cc3)n2n1` [Formula I, 5-[4-(1,1-Dioxothiomorpholin-4-ylmethyl)-phenyl]-[1,2,4]triazolo[1,5-a]pyridin-2-ylamine], for which the IC50 is 546 nM in test [1] (setting [3]); 460 nM and 586 nM and 494 nM and 758 nM and 433 nM in test [1] (setting [4]); 307 nM in test [2] (setting [3]); 347 nM and 355 nM and 222 nM and 714 nM and 167 nM and 103 nM and 187 nM and 582 nM and 295 nM and 242 nM and 159 nM in test [2] (setting [4]); more than 7430 nM in the test with JAK-STAT (Homo sapiens, HeLa, average, read-out: IC50 (average)); more than 6670 nM in the test with JAK-STAT (Homo sapiens, HeLa, individual determinations, read-out: IC50). Also, the IC50 result was “Non active” in the test with JAK-STAT (individual determinations); > 6670 nM and 8940 nM with JAK-STAT (setting [4]).
